Source: patent publication US20020172704A1, “Planting method and biodegradable material for preventing pests” (priority 2001, published 2002)
Marks after values point to notes of the source that are not given here.

Tested on: golden apple snail (Pomacea canaliculata (Lamarck))
Experiment: Hurting rate and death rate of golden apple snails on SDS-added paper mat round boards on wet paddy soil in Petri dishes
Type: in vivo
Conditions: for Death Rate (%) / Hurting Rate (%): average after three days, paper mat
Description: The glutinous solutions with different SDS densities (100, 500, 1000, 2000, 5000, 7500, and 10000 ppm) are prepared in advance, and the paper mat made by YUEN FOONG YU PAPER MFG Co., Ltd is also cut into many round boards having a diameter of 9 cm.
The test is done by the following steps. At first, each of the round boards is dripped with 2 ml of one of the glutinous solutions respectively. The round boards are dried in an oven at a temperature of 30° C. Then, the soil taken from the paddy field is added with water to simulate the natural environment. Each of the dried SDS-added round boards is bedded on 50 g of the wet soil in a Petri dish respectively. Finally, each of the dishes is added with 10 ml water and put 10 golden apple snails thereon.
Two other groups are prepared for comparison. […] All the three groups are observed in a greenhouse.

[1] = Conc. of SDS solution 100 ppm, snail size 3.28 ± 0.43 g/per snail
[2] = Conc. of SDS solution 500 ppm, snail size 3.28 ± 0.43 g/per snail
[3] = Conc. of SDS solution 1000 ppm, snail size 3.28 ± 0.43 g/per snail
[4] = Conc. of SDS solution 2500 ppm, snail size 0.82 ± 0.26 g/per snail
[5] = Conc. of SDS solution 5000 ppm, snail size 0.82 ± 0.26 g/per snail
[6] = Conc. of SDS solution 7500 ppm, snail size 0.82 ± 0.26 g/per snail
[7] = Conc. of SDS solution 10000 ppm, snail size 0.82 ± 0.26 g/per snail

CCCCCCCCCCCCOS(=O)(=O)[O-].[Na+] [SDS, sodium dodecyl sulfate]
Death Rate (%) [1]: 0.00%
Hurting Rate (%) [1]: 3.33* %
Death Rate (%) [2]: 3.33%
Hurting Rate (%) [2]: 6.67%
Death Rate (%) [3]: 10.00%
Hurting Rate (%) [3]: 23.33%
Death Rate (%) (Conc. of SDS solution 2000 ppm, snail size 3.28 ± 0.43 g/per snail): 10.00%
Death Rate (%) [4]: 100.00%
Hurting Rate (%) [4]: 100.00* %
Death Rate (%) [5]: 100.00%
Hurting Rate (%) [5]: 100.00%
Death Rate (%) [6]: 100.00%
Hurting Rate (%) [6]: 100.00%
Death Rate (%) [7]: 100.00%
Hurting Rate (%) [7]: 100.00%
hurting rate (smaller snails, SDS concentrations above 2500 ppm (summary of Table 2)): ~100.00%
